Experimental data: US20220143231A1, “MACROCYCLIC COMPOUNDS AND METHODS OF USE THEREOF” (Janssen Biotech, Inc., priority 2020, published 2022)

Assay: Chelation test with La^3+ by HPLC
Format: physicochemical
Details: FIGS. 1A-1B

Structure (SMILES) | chelation of La^3+ (shift in HPLC retention time after mixing)
CC(C)CCC(c1cccc(C(=O)O)n1)N1CCOCCOCCN(Cc2cccc(C(=O)O)n2)CCOCCOCC1 (centres unmarked) [TOPA-[C7]-isopentyl, 6-((16-(1-(6-carboxypyridin-2-yl)-4-methylpentyl)-1,4,10,13-tetraoxa-7,16-diazacyclooctadecan-7-yl)methyl)picolinic acid] | rapid chelation
O=C(O)c1cccc(CN2CCOCCOCCN(C(c3ccccc3)c3cccc(C(=O)O)n3)CCOCCOCC2)n1 (centres unmarked) [TOPA-[C7]-phenyl, 6-((16-((6-carboxypyridin-2-yl)(phenyl)methyl)-1,4,10,13-tetraoxa-7,16-diazacyclooctadecan-7-yl)methyl)picolinic acid] | rapid chelation
